In patent US20240050428A1 (Cullgen (Shanghai), Inc., priority 2020, published 2024):
Where two headings read alike, the source gives them in different places.

Key:
MOLM-13 cells = assay: Cell viability assay (CellTiter-Glo) in MOLM-13 cells, alone or with gilteritinib; assay type: cell-based; details: Homo sapiens, MOLM-13 cells, three days, CellTiter-Glo
MV4;11 cells = assay: Cell viability assay (CellTiter-Glo) in MV4;11 cells, alone or with gilteritinib; assay type: cell-based; details: Homo sapiens, MV4;11 cells, three days, CellTiter-Glo, read-out: MV4
[1] = 72 h, compound alone (without gilteritinib), read-out: MOLM-13 IC50
[2] = 72 h, with gilteritinib 20 nM, read-out: MOLM-13 IC50 gilteritinib
[3] = 72 h, compound alone (without gilteritinib), 11 IC50
[4] = 72 h, with gilteritinib 10 nM, 11 IC50 gilteritinib
[5] = MOLM-13, 72 h, compound alone (without gilteritinib), read-out: MOLM-13 IC50
[6] = MOLM-13, 72 h, with gilteritinib 20 nM, read-out: MOLM-13 IC50 gilteritinib
[7] = MV4-11, 72 h, compound alone (without gilteritinib), 11 IC50
[8] = MV4-11, 72 h, with gilteritinib 10 nM, 11 IC50 gilteritinib

| SMILES | IC50 (MOLM-13 cells; [1]) [nM] | IC50 (MOLM-13 cells; [2]) [nM] | IC50 (MV4;11 cells; [3]) [nM] | IC50 (MV4;11 cells; [4]) [nM] | IC50 (MOLM-13 cells; [5]) [nM] | IC50 (MOLM-13 cells; [6]) [nM] | IC50 (MV4;11 cells; [7]) [nM] | IC50 (MV4;11 cells; [8]) [nM] |
| --- | --- | --- | --- | --- | --- | --- | --- | --- |
| O=C1CCC(N2Cc3ccc(CCCCCCC(=O)N4CCC(c5ccccc5)CC4)cc3C2=O)C(=O)N1 (centres unmarked) [GS-099, 3-(1-Oxo-6-(7-oxo-7-(4-phenylpiperidin-1-yl)heptyl)isoindolin-2-yl)piperidine-2,6-dione] | 100 to 1000 | 10 to 100 | 100 to 1000 | 10 to 100 | – | – | – | – |
| O=C1CCC(N2C(=O)c3ccc(NCCC4CCC(n5cc(-c6cnc7ccccc7n6)cn5)CC4)cc3C2=O)C(=O)N1 (centres unmarked) [GS-100, 2-(2,6-Dioxopiperidin-3-yl)-5-((2-(4-(4-(quinoxalin-2-yl)-1H-pyrazol-1-yl)cyclohexyl)ethyl)amino)isoindoline-1,3-dione] | – | – | – | – | > 1000 | 100 to 1000 | > 1000 | > 1000 |
| O=C1CCC(N2Cc3ccc(CCCCCC(=O)N4CCC(n5cc(-c6cnc7ccccc7n6)cn5)CC4)cc3C2=O)C(=O)N1 (centres unmarked) [GS-101, 3-(1-Oxo-6-(6-oxo-6-(4-(4-(quinoxalin-2-yl)-1H-pyrazol-1-yl)piperidin-1-yl)hexyl)isoindolin-2-yl)piperidine-2,6-dione] | – | – | – | – | 10 to 100 | < 10 | < 10 | < 10 |
| O=C1CCC(N2Cc3ccc(CCCCCC(=O)N4CCC(n5cc(-c6ccc7ccccc7n6)cn5)CC4)cc3C2=O)C(=O)N1 (centres unmarked) [GS-102, 3-(1-Oxo-6-(6-oxo-6-(4-(4-(quinolin-2-yl)-1H-pyrazol-1-yl)piperidin-1-yl)hexyl)isoindolin-2-yl)piperidine-2,6-dione] | – | – | – | – | 100 to 1000 | 10 to 100 | 10 to 100 | < 10 |
| O=C1CCC(N2Cc3ccc(CCCCCC(=O)N4CCN(c5ccccn5)CC4)cc3C2=O)C(=O)N1 (centres unmarked) [GS-103, 3-(1-Oxo-6-(6-oxo-6-(4-(pyridin-2-yl)piperazin-1-yl)hexyl)isoindolin-2-yl)piperidine-2,6-dione] | > 1000 | 100 to 1000 | > 1000 | 100 to 1000 | – | – | – | – |
| O=C1CCC(N2Cc3ccc(CCCCCC(=O)N4CCC(c5ccccn5)CC4)cc3C2=O)C(=O)N1 (centres unmarked) [GS-104, 3-(1-Oxo-6-(6-oxo-6-(4-(pyridin-2-yl)piperidin-1-yl)hexyl)isoindolin-2-yl)piperidine-2,6-dione] | – | – | – | – | > 1000 | 100 to 1000 | 100 to 1000 | 100 to 1000 |
| O=C1CCC(N2Cc3ccc(CCCCCCCn4cc(-c5cnc6ccccc6n5)cn4)cc3C2=O)C(=O)N1 (centres unmarked) [GS-105, 3-(1-Oxo-6-(7-(4-(quinoxalin-2-yl)-1H-pyrazol-1-yl)heptyl)isoindolin-2-yl)piperidine-2,6-dione] | – | – | – | – | 10 to 100 | < 10 | 10 to 100 | 10 to 100 |
| O=C1CCC(N2Cc3ccc(CCCCCCn4cc(-c5cnc6ccccc6n5)cn4)cc3C2=O)C(=O)N1 (centres unmarked) [GS-106, 3-(1-Oxo-6-(6-(4-(quinoxalin-2-yl)-1H-pyrazol-1-yl)hexyl)isoindolin-2-yl)piperidine-2,6-dione] | – | – | – | – | > 1000 | 10 to 100 | 100 to 1000 | 10 to 100 |
| O=C1CCC(N2C(=O)c3ccc(NCCCC4CC(n5cc(-c6cnc7ccccc7n6)cn5)C4)cc3C2=O)C(=O)N1 (centres unmarked) [GS-107, 2-(2,6-Dioxopiperidin-3-yl)-5-((3-(3-(4-(quinoxalin-2-yl)-1H-pyrazol-1-yl)cyclobutyl)propyl)amino)isoindoline-1,3-dione] | – | – | – | – | > 1000 | 10 to 100 | 100 to 1000 | 10 to 100 |
| O=C1CCC(N2Cc3c(OCc4ccc(CN5CCC(n6cc(-c7cnc8ccccc8n7)cn6)CC5)cc4)cccc3C2=O)C(=O)N1 (centres unmarked) [GS-108, 3-(1-Oxo-4-((4-((4-(4-(quinoxalin-2-yl)-1H-pyrazol-1-yl)piperidin-1-yl)methyl)benzyl)oxy)isoindolin-2-yl)piperidine-2,6-dione] | – | – | – | – | > 1000 | 10 to 100 | > 1000 | 100 to 1000 |
| O=C(CC1CC1n1cc(-c2cnc3ccccc3n2)cn1)NCc1ccc2c(c1)CN(C1CCC(=O)NC1=O)C2=O (centres unmarked) [GS-109, N-((2-(2,6-Dioxopiperidin-3-yl)-1-oxoisoindolin-5-yl)methyl)-2-(2-(4-(quinoxalin-2-yl)-1H-pyrazol-1-yl)cyclopropyl)acetamide] | – | – | – | – | > 1000 | 100 to 1000 | 100 to 1000 | 100 to 1000 |
| O=C1CCC(N2Cc3c(NC4CCCC(Nc5cccc(N6CCC(n7cc(-c8cnc9ccccc9n8)cn7)CC6)c5)C4)cccc3C2=O)C(=O)N1 (centres unmarked) [GS-110, 3-(1-Oxo-4-((3-((3-(4-(4-(quinoxalin-2-yl)-1H-pyrazol-1-yl)piperidin-1-yl)phenyl)amino)cyclohexyl)amino)isoindolin-2-yl)piperidine-2,6-dione] | – | – | – | – | 10 to 100 | < 10 | < 10 | < 10 |
| O=C1CCC(N2Cc3ccc(CCCCCCC(=O)N4CCC(c5ccccn5)CC4)cc3C2=O)C(=O)N1 (centres unmarked) [GS-111, 3-(1-Oxo-6-(7-oxo-7-(4-(pyridin-2-yl)piperidin-1-yl)heptyl)isoindolin-2-yl)piperidine-2,6-dione] | – | – | – | – | > 1000 | 100 to 1000 | 100 to 1000 | 10 to 100 |
| O=C1CCC(N2C(=O)c3ccc(NCCCC4CCCC(n5cc(-c6cnc7ccccc7n6)cn5)C4)cc3C2=O)C(=O)N1 (centres unmarked) [GS-112, 2-(2,6-Dioxopiperidin-3-yl)-5-((3-(3-(4-(quinoxalin-2-yl)-1H-pyrazol-1-yl)cyclohexyl)propyl)amino)isoindoline-1,3-dione] | – | – | – | – | > 1000 | 100 to 1000 | > 1000 | 100 to 1000 |
| O=C1CCC(N2Cc3ccc(CCCCCC(=O)N4CCC(c5cccc(Cl)c5)CC4)cc3C2=O)C(=O)N1 (centres unmarked) [GS-113, 3-(6-(6-(4-(3-Chlorophenyl)piperidin-1-yl)-6-oxohexyl)-1-oxoisoindolin-2-yl)piperidine-2,6-dione] | – | – | – | – | > 1000 | 10 to 100 | 10 to 100 | < 10 |
| O=C1CCC(N2Cc3ccc(CCCCCC(=O)N4CCC(c5ccc(Cl)cc5)CC4)cc3C2=O)C(=O)N1 (centres unmarked) [GS-114, 3-(6-(6-(4-(4-Chlorophenyl)piperidin-1-yl)-6-oxohexyl)-1-oxoisoindolin-2-yl)piperidine-2,6-dione] | 100 to 1000 | 10 to 100 | 100 to 1000 | 10 to 100 | – | – | – | – |
| O=C1CCC(N2Cc3ccc(CCCCCCC(=O)N4CCC(c5cccc(Cl)c5)CC4)cc3C2=O)C(=O)N1 (centres unmarked) [GS-115, 3-(6-(7-(4-(3-Chlorophenyl)piperidin-1-yl)-7-oxoheptyl)-1-oxoisoindolin-2-yl)piperidine-2,6-dione] | – | – | – | – | 10 to 100 | < 10 | 100 to 1000 | 10 to 100 |
| O=C1CCC(N2Cc3ccc(CCCCCCC(=O)N4CCC(c5ccc(Cl)cc5)CC4)cc3C2=O)C(=O)N1 (centres unmarked) [GS-116, 3-(6-(7-(4-(4-Chlorophenyl)piperidin-1-yl)-7-oxoheptyl)-1-oxoisoindolin-2-yl)piperidine-2,6-dione] | 100 to 1000 | < 10 | 10 to 100 | < 10 | – | – | – | – |
| O=C1CCC(N2C(=O)c3ccc(NCCc4ccc(-n5cc(-c6cnc7ccccc7n6)cn5)cc4)cc3C2=O)C(=O)N1 (centres unmarked) [GS-117, 2-(2,6-Dioxopiperidin-3-yl)-5-((4-(4-(quinoxalin-2-yl)-1H-pyrazol-1-yl)phenethyl)amino)isoindoline-1,3-dione] | – | – | – | – | > 1000 | 100 to 1000 | > 1000 | 100 to 1000 |
| O=C1CCC(N2C(=O)c3ccc(NCCNCC4CC4n4cc(-c5cnc6ccccc6n5)cn4)cc3C2=O)C(=O)N1 (centres unmarked) [GS-118, 2-(2,6-Dioxopiperidin-3-yl)-5-((2-(((2-(4-(quinoxalin-2-yl)-1H-pyrazol-1-yl)cyclopropyl)methyl)amino)ethyl)amino)isoindoline-1,3-dione] | – | – | – | – | 10 to 100 | < 10 | > 1000 | > 1000 |
| O=C1CCC(N2Cc3c(NC4CCCC(Nc5ccnc(N6CCC(n7cc(-c8cnc9ccccc9n8)cn7)CC6)n5)C4)cccc3C2=O)C(=O)N1 (centres unmarked) [GS-119, 3-(1-Oxo-4-((3-((2-(4-(4-(quinoxalin-2-yl)-1H-pyrazol-1-yl)piperidin-1-yl)pyrimidin-4-yl)amino)cyclohexyl)amino)isoindolin-2-yl)piperidine-2,6-dione] | – | – | – | – | > 1000 | 100 to 1000 | > 1000 | 10 to 100 |
| O=C1CCC(N2Cc3cc(CNC(=O)C45CC(C(=O)N6CCC(n7cc(-c8cnc9ccccc9n8)cn7)CC6)(C4)C5)ccc3C2=O)C(=O)N1 (centres unmarked) [GS-120, N-((2-(2,6-dioxopiperidin-3-yl)-1-oxoisoindolin-5-yl)methyl)-3-(4-(4-(quinoxalin-2-yl)-1H-pyrazol-1-yl)piperidine-1-carbonyl)bicyclo[1.1.1]pentane-1-carboxamide] | – | – | – | – | 10 to 100 | < 10 | 10 to 100 | < 10 |
| O=C(CC12CC(C(=O)N3CCC(n4cc(-c5cnc6ccccc6n5)cn4)CC3)(C1)C2)NCc1ccc2c(c1)CN(C1CCC(=O)NC1=O)C2=O (centres unmarked) [GS-121, N-((2-(2,6-dioxopiperidin-3-yl)-1-oxoisoindolin-5-yl)methyl)-2-(3-(4-(4-(quinoxalin-2-yl)-1H-pyrazol-1-yl)piperidine-1-carbonyl)bicyclo[1.1.1]pentan-1-yl)acetamide] | – | – | – | – | > 1000 | 100 to 1000 | 100 to 1000 | 10 to 100 |
